≈ marks a conversion by molar mass, not a printed value. Calls of active or inactive are those of the source. The calls are words filed in the database; no cut-off is given here.

One assay deals with Mycobacterium tuberculosis. Description: Inhibitory activity against Mycobacterium tuberculosis H37Rv. The class given is functional.
In the case of `C=CC(C)C[C@@]1(C)SC(O)=C(C)C1=O` (stereo not given in full), the MIC is above 1000 µM.

The compound `CCC(C)C1(C)SC(O)=C(C)C1=O` (stereo not given) yielded an MIC above 1000 µM.

`C=C/C=C/C1(C)SC(=O)C(C)=C1O` (stereo not given) gave a minimal inhibitory concentration (MIC) of 1000 µM (≈ 196 µg/mL).

On to `CCC(C)C[C@@]1(C)SC(O)=C(C)C1=O` (stereo not given in full), for which the MIC is above 1000 µM.

`C=CCCCC1(C)SC(=O)C(C)=C1O` (stereo not given) returned an MIC above 1000 µM.

In the case of `CC(C)=CCC/C(C)=C/CC/C(C)=C/CC1(C)SC(O)=C(C)C1=O` (stereo not given), the MIC is above 1000 µM.

Take `CC1=C(O)C(C)(Cc2ccc(C(F)(F)F)cc2)SC1=O` (stereo not given): the MIC was found to be 1000 µM (≈ 302 µg/mL).

In turn, `CCCCCCCCC1(C)SC(O)=C(C)C1=O` (stereo not given) yielded an MIC above 1000 µM.

The next assay addresses wild-type apo-KasA (Mycobacterium tuberculosis, UniProt P9WQD9). Description: Inhibitory activity against KasA from Mycobacterium tuberculosis H37Rv.
`C=C/C=C/C1(C)SC(=O)C(C)=C1O` (stereo not given) registered an IC50 of 25 µM.

`C=CCCCC1(C)SC(=O)C(C)=C1O` (stereo not given) displayed an IC50 above 100 µM.

The target of another assay is T1, 3-oxoacyl-[acyl-carrier-protein] synthase 3 (Escherichia coli, UniProt C3TDZ2).
T1 sequence (C3TDZ2 whole entry): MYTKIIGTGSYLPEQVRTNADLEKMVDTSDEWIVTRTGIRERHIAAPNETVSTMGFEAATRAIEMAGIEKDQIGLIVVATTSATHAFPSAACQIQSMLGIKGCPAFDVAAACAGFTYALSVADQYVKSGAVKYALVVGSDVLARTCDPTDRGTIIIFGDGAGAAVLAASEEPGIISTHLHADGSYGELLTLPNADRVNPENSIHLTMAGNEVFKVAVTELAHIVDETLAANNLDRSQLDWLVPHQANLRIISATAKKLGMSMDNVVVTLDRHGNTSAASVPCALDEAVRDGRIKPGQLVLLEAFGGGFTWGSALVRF
The assay can be described thus: Inhibitory activity against FabH from Escherichia coli ANSI.
For `CC(C)=CCC/C(C)=C/CC/C(C)=C/CC1(C)SC(O)=C(C)C1=O` (stereo not given), the IC50 was above 100 µM.

Turning to `CCCCCCCCC1(C)SC(O)=C(C)C1=O` (stereo not given), the IC50 was above 100 µM.

The target of another assay is Fatty acid synthase (Homo sapiens, UniProt P49327). Description: Inhibitory activity against human FAS1 at 100 uM.
Chain of Fatty acid synthase (P49327 whole entry, looked up): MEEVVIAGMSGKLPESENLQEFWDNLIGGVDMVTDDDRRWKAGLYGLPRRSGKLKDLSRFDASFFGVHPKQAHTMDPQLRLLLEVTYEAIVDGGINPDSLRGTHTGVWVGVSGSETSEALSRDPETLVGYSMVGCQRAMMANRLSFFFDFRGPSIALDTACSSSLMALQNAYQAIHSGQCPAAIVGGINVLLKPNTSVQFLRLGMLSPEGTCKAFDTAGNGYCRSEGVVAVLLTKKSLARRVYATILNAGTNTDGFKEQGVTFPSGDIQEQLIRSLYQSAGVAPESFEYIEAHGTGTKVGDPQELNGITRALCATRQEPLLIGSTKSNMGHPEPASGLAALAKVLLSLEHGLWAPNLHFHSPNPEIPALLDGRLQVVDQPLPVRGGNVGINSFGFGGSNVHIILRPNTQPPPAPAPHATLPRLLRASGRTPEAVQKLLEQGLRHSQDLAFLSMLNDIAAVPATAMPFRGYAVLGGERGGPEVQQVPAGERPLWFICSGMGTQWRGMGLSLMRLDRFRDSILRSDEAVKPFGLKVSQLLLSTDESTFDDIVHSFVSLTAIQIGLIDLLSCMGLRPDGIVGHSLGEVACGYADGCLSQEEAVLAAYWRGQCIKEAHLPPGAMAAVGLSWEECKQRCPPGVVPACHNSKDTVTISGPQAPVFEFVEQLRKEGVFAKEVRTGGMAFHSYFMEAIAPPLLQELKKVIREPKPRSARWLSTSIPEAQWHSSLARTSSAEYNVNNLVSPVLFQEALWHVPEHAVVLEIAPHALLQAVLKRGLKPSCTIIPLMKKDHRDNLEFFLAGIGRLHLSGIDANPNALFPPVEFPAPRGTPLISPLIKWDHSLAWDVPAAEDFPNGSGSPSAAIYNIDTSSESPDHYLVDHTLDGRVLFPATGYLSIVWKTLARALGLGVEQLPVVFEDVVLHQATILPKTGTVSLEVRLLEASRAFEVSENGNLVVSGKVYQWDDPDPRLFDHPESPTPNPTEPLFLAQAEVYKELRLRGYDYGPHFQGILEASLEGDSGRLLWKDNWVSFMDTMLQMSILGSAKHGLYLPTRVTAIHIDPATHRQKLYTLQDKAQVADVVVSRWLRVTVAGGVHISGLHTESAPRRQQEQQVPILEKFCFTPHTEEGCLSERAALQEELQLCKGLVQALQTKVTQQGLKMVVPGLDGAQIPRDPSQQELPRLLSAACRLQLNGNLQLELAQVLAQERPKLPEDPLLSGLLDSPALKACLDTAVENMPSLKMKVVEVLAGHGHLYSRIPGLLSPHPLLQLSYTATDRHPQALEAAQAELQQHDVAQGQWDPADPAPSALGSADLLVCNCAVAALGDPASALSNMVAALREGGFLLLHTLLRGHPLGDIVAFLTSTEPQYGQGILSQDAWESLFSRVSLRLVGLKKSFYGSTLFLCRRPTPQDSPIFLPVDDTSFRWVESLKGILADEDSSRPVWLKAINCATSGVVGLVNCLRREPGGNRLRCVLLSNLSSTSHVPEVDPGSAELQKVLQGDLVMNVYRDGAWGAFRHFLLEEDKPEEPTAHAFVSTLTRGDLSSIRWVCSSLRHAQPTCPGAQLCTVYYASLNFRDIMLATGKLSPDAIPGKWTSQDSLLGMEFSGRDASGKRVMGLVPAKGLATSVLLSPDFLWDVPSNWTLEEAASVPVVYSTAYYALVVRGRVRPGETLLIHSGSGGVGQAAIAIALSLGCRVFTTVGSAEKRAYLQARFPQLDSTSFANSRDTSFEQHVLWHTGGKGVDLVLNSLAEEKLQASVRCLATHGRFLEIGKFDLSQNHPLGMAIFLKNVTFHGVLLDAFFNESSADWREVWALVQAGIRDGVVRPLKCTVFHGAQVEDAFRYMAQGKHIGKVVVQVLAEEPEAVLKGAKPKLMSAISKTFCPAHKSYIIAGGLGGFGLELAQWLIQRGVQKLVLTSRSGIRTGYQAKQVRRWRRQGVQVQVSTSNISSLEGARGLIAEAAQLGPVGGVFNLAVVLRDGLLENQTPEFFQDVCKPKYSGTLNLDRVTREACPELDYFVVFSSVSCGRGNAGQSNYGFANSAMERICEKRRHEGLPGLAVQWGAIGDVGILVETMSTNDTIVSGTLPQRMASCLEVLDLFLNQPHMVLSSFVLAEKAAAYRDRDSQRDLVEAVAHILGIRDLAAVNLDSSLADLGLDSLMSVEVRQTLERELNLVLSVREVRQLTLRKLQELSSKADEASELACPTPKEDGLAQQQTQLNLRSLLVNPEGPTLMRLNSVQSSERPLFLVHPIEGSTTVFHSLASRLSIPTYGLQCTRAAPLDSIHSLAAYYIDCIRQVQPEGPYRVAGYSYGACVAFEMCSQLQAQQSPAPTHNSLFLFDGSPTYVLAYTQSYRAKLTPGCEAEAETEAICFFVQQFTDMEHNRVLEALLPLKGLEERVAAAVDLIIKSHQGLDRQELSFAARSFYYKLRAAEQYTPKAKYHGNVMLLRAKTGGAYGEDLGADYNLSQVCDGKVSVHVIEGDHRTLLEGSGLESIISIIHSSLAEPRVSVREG
In the case of `C=CC(C)C[C@@]1(C)SC(O)=C(C)C1=O` (stereo not given in full), the inhibition entry is “inactive”.

As to `C=C/C=C/C1(C)SC(=O)C(C)=C1O` (stereo not given), the inhibition entry is “inactive”.

As for `CCC(C)C[C@@]1(C)SC(O)=C(C)C1=O` (stereo not given in full), the inhibition entry is “inactive”.

The target in the next assay is T2, 3-oxoacyl-[acyl-carrier-protein] synthase 2 (Mycobacterium tuberculosis) (UniProt P9WQD7).
T2 sequence (whole entry): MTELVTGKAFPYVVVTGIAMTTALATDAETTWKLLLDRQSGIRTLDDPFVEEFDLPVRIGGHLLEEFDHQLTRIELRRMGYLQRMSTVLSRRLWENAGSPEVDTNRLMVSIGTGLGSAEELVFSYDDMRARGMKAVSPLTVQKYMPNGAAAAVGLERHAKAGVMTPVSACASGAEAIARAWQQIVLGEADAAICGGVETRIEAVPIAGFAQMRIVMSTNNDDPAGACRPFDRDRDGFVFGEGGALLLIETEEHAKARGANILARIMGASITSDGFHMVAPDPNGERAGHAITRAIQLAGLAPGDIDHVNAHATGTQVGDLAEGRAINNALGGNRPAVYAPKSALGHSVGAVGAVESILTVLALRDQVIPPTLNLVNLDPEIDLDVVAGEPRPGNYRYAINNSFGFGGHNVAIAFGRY
Description: Inhibitory activity against KasB from Mycobacterium tuberculosis H37Rv at 100 uM.
With `C=CC(C)C[C@@]1(C)SC(O)=C(C)C1=O` (stereo not given in full), the inhibition result is “inactive”.

Regarding `CCC(C)C1(C)SC(O)=C(C)C1=O` (stereo not given), the inhibition result was “inactive”.

For `CCC(C)C[C@@]1(C)SC(O)=C(C)C1=O` (stereo not given in full), the inhibition result is “inactive”.

On to `C=CCCCC1(C)SC(=O)C(C)=C1O` (stereo not given), for which the inhibition result is “inactive”.

For the compound `CC(C)=CCC/C(C)=C/CC/C(C)=C/CC1(C)SC(O)=C(C)C1=O` (stereo not given), the inhibition was below 30%.

As to `CC1=C(O)C(C)(Cc2ccc(C(F)(F)F)cc2)SC1=O` (stereo not given), the inhibition result is “inactive”.

Regarding `CCCCCCCCC1(C)SC(O)=C(C)C1=O` (stereo not given), the inhibition entry was “inactive”.

In another assay the target is T3, 3-oxoacyl-[acyl-carrier-protein] synthase 1 (Escherichia coli K-12) (UniProt P0A953).
T3 sequence (whole entry): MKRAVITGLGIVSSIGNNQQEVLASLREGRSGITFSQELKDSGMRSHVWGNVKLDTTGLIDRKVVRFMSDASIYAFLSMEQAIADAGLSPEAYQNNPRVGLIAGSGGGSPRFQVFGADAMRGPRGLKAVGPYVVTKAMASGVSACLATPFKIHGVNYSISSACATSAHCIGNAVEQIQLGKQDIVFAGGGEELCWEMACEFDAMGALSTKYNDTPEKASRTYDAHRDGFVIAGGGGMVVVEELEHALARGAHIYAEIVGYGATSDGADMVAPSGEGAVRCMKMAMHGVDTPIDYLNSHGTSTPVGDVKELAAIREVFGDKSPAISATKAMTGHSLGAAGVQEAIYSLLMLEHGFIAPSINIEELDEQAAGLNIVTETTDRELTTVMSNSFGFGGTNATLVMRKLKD
The assay can be described thus: Inhibitory activity against FabB from Escherichia coli ANSI at 100 uM.
`C=CC(C)C[C@@]1(C)SC(O)=C(C)C1=O` (stereo not given in full): the inhibition result was “inactive”.

`CCC(C)C1(C)SC(O)=C(C)C1=O` (stereo not given): the inhibition result was “inactive”.

As for `CCC(C)C[C@@]1(C)SC(O)=C(C)C1=O` (stereo not given in full), the inhibition result was “inactive”.

Turning to `C=CCCCC1(C)SC(=O)C(C)=C1O` (stereo not given), the inhibition entry was “inactive”.

With `CC(C)=CCC/C(C)=C/CC/C(C)=C/CC1(C)SC(O)=C(C)C1=O` (stereo not given), the inhibition result was “inactive”.

As to `CC1=C(O)C(C)(Cc2ccc(C(F)(F)F)cc2)SC1=O` (stereo not given), the inhibition result is “inactive”.

For `CCCCCCCCC1(C)SC(O)=C(C)C1=O` (stereo not given), the inhibition entry was “inactive”.

A further assay has as its target T4, 3-oxoacyl-[acyl-carrier-protein] synthase 1 (Mycobacterium tuberculosis) (UniProt P9WQD9).
T4 sequence (whole entry): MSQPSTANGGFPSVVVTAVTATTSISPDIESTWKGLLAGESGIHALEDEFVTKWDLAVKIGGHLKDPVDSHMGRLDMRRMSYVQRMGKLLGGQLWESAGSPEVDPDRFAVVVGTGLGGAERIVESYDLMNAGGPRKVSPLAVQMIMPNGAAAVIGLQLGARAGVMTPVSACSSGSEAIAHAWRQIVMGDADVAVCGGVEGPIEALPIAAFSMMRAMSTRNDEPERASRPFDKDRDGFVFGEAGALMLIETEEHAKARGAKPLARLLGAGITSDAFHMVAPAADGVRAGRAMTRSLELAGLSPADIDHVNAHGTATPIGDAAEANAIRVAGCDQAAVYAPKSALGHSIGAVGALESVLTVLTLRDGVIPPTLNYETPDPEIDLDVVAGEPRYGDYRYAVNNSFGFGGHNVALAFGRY
Description: Inhibitory activity against KasA from Mycobacterium tuberculosis H37Rv at 100 uM.
`C=CC(C)C[C@@]1(C)SC(O)=C(C)C1=O` (stereo not given in full): the inhibition entry is “inactive”.

Consider `CCC(C)C1(C)SC(O)=C(C)C1=O` (stereo not given), for which the inhibition result is “inactive”.

`CCC(C)C[C@@]1(C)SC(O)=C(C)C1=O` (stereo not given in full): the inhibition result was “inactive”.

`C=CCCCC1(C)SC(=O)C(C)=C1O` (stereo not given) gave an inhibition below 30%.

Consider `CC(C)=CCC/C(C)=C/CC/C(C)=C/CC1(C)SC(O)=C(C)C1=O` (stereo not given), for which the inhibition entry was “inactive”.

As for `CC1=C(O)C(C)(Cc2ccc(C(F)(F)F)cc2)SC1=O` (stereo not given), the inhibition entry was “inactive”.

Turning to `CCCCCCCCC1(C)SC(O)=C(C)C1=O` (stereo not given), the inhibition entry is “inactive”.

The target of another assay is T5, Mycobacterial beta-ketoacyl-[acyl-carrier-protein] synthase III (Mycobacterium tuberculosis, UniProt P9WNG3).
T5 sequence (P9WNG3 whole entry): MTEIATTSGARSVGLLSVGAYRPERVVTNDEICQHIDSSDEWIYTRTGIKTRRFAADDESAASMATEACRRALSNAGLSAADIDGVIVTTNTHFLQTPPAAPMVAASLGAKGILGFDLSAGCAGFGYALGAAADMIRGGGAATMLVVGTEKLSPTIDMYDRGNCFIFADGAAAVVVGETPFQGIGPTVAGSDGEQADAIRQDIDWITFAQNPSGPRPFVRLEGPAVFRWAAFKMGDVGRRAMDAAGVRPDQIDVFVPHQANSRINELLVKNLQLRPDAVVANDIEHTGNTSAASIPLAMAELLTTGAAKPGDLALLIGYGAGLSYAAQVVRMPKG
The assay can be described thus: Inhibitory activity against FabH from Mycobacterium tuberculosis H37Rv.
In the case of `CCC(C)C1(C)SC(O)=C(C)C1=O` (stereo not given), the IC50 was above 100 µM.

For `CC1=C(O)C(C)(Cc2ccc(C(F)(F)F)cc2)SC1=O` (stereo not given), the IC50 was above 100 µM.

With `CCCCCCCCC1(C)SC(O)=C(C)C1=O` (stereo not given), the IC50 was above 100 µM.

The target in another assay is T6, 3-oxoacyl-[acyl-carrier-protein] synthase 2 (Mycobacterium tuberculosis, UniProt P9WQD7).
T6 sequence (P9WQD7 whole entry): T2 sequence (whole entry)
Description: Inhibitory activity against KasB from Mycobacterium tuberculosis H37Rv.
In turn, `C=C/C=C/C1(C)SC(=O)C(C)=C1O` (stereo not given) returned an IC50 of 400 µM.

Consider `CC(C)=CCC/C(C)=C/CC/C(C)=C/CC1(C)SC(O)=C(C)C1=O` (stereo not given), for which the IC50 was above 100 µM.

The target in a further assay is T7, 3-oxoacyl-[acyl-carrier-protein] synthase 1 (Escherichia coli K-12, UniProt P0A953).
T7 sequence (P0A953 whole entry): T3 sequence (whole entry)
The assay can be described thus: Inhibitory activity against FabB from Escherichia coli ANSI.
On to `C=C/C=C/C1(C)SC(=O)C(C)=C1O` (stereo not given), for which 500 µM corresponded to half-maximal inhibition (IC50).

The target in a further assay is T8, Mycobacterial beta-ketoacyl-[acyl-carrier-protein] synthase III (Mycobacterium tuberculosis) (UniProt P9WNG3).
T8 sequence (whole entry): T5 sequence (P9WNG3 whole entry)
The assay can be described thus: Inhibitory activity against FabH from Mycobacterium tuberculosis H37Rv at 100 uM.
`CCC(C)C1(C)SC(O)=C(C)C1=O` (stereo not given) registered an inhibition below 30%.

Consider `C=CCCCC1(C)SC(=O)C(C)=C1O` (stereo not given), for which the inhibition entry is “inactive”.

`CC(C)=CCC/C(C)=C/CC/C(C)=C/CC1(C)SC(O)=C(C)C1=O` (stereo not given): the inhibition entry is “inactive”.

`CC1=C(O)C(C)(Cc2ccc(C(F)(F)F)cc2)SC1=O` (stereo not given) had an inhibition below 30%.

Take `CCCCCCCCC1(C)SC(O)=C(C)C1=O` (stereo not given): the inhibition was below 30%.

The test system of the next assay is Escherichia coli. The assay can be described thus: Inhibitory activity against Escherichia coli ANSI. The class given is functional.
Consider `C=CC(C)C[C@@]1(C)SC(O)=C(C)C1=O` (stereo not given in full), for which the MIC was above 200 µM.

The compound `CCC(C)C1(C)SC(O)=C(C)C1=O` (stereo not given) gave an MIC above 1000 µM.

With `C=C/C=C/C1(C)SC(=O)C(C)=C1O` (stereo not given), the MIC was found to be 200 µM (≈ 39.3 µg/mL).

`CCC(C)C[C@@]1(C)SC(O)=C(C)C1=O` (stereo not given in full) yielded an MIC above 200 µM.

In turn, `C=CCCCC1(C)SC(=O)C(C)=C1O` (stereo not given) had an MIC above 1000 µM.

`CC(C)=CCC/C(C)=C/CC/C(C)=C/CC1(C)SC(O)=C(C)C1=O` (stereo not given): the MIC worked out at 200 µM (≈ 69.7 µg/mL).

The compound `CC1=C(O)C(C)(Cc2ccc(C(F)(F)F)cc2)SC1=O` (stereo not given) registered an MIC above 1000 µM.

Consider `CCCCCCCCC1(C)SC(O)=C(C)C1=O` (stereo not given), for which the MIC came out at 200 µM (≈ 51.3 µg/mL).

The target of the next assay is T9, 3-oxoacyl-[acyl-carrier-protein] synthase 3 (Escherichia coli) (UniProt C3TDZ2).
T9 sequence (whole entry): T1 sequence (C3TDZ2 whole entry)
Description: Inhibitory activity against FabH from Escherichia coli ANSI at 100 uM.
As to `CCC(C)C1(C)SC(O)=C(C)C1=O` (stereo not given), the inhibition result is “inactive”.

Regarding `C=CCCCC1(C)SC(=O)C(C)=C1O` (stereo not given), the inhibition result is “inactive”.

Regarding `CC(C)=CCC/C(C)=C/CC/C(C)=C/CC1(C)SC(O)=C(C)C1=O` (stereo not given), the inhibition was below 30%.

As for `CC1=C(O)C(C)(Cc2ccc(C(F)(F)F)cc2)SC1=O` (stereo not given), the inhibition entry is “inactive”.

Turning to `CCCCCCCCC1(C)SC(O)=C(C)C1=O` (stereo not given), the inhibition is below 30%.

Usually MIC stands for the lowest concentration found to suppress growth. Low values mean greater potency, high ones weaker potency. For orientation: IC50 means the concentration that inhibits the measured activity by half. As a reminder, the inhibition is how much of the control response was suppressed.

Values taken from ChEMBL document CHEMBL1148604 (J Med Chem, 2006).
